According to patent US12448377B2, “Heterocyclic compound” (Takeda Pharmaceutical Company Limited, priority 2019, dated 2025):
Each block holds one compound with its values, some of them ahead of it.

Legend:
[1] = target: T1, human orexin type 2 receptor (Homo sapiens, UniProt O43614); assay: Measurement of orexin type 2 receptor agonist activity (calcium fluorescence, CHO cells forcibly expressing human OX2 receptor); assay type: cell-based; settings: compound at 3 μM, DMSO = 0%, orexin A (human) 10 nM = 100%
T1 construct: expressed in transfected cells
T1 sequence (O43614 1-444): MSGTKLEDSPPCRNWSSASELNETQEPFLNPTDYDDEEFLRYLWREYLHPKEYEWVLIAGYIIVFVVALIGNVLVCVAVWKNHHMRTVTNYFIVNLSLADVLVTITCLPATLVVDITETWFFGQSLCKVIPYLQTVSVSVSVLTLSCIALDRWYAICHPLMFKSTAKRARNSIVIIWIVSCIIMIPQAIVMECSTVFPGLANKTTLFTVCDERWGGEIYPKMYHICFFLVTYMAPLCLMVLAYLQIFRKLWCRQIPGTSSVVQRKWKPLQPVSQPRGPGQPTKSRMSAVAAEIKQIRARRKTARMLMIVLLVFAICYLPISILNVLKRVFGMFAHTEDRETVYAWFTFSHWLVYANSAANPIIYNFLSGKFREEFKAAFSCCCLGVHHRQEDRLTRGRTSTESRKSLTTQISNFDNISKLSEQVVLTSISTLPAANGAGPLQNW
Outline: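 Agonism measured as Fluo-4 calcium fluorescence in CHO-K1 cells stably expressing human OX2 receptor, loaded 30 min at 37° C then 30 min at room temperature with probenecid. Signal recorded about 2 min 40 sec after compound; activity (%) normalised to DMSO (0%) and 10 nM human orexin A (100%).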

cynomolgus monkeys = assay: Evaluation of wake-promoting effects in cynomolgus monkeys (EEG/EMG/EOG); assay type: in vivo, cynomolgus monkey; settings: s.c., at ZT12, 4 h after administration
Method: The wake-promoting effects were evaluated by measuring the electroencephalogram (EEG), electromyogram (EMG) and electrooculogram (EOG) in cynomolgus monkeys. Under isoflurane anesthesia (1-5%, Pfizer Japan Inc., Tokyo, Japan), male cynomolgus monkeys (2-3 years old, Hamri Co., Ltd., Ibaraki, Japan) were surgically implanted with radio-telemetry transmitters (TL10M3-D70-EEE, Data Sciences International Inc., MN, USA). EEG leads were stereotaxically positioned at the parietal area and secured to the cranium with stainless-steel screws in contact with the dura. […] Bilateral EMG leads were implanted into the back cervical muscles. After the surgery, each monkey was given penicillin (100,000 units/head, i.m., Meiji Seika Pharma Co., Ltd., Tokyo, Japan), buprenorphine (0.02 mg/kg, i.m., Otsuka Pharmaceutical Co., Ltd., Tokyo, Japan) and prednisolone (1 mg/kg, s.c., Kyoritsu Seiyaku Co., Ltd., Tokyo, Japan) daily for one week. After at least a 1-month recovery period in home cages, the monkeys were habituated to the recording chamber (an acrylic cage 60W×55D×75H (cm)) located in a soundproof, electrically shielded room. After confirming that the monkeys slept sufficiently in the experimental room, the cortical EEG, EMG and EOG signals were recorded using Dataquest ART software (Data Sciences International Inc., MN, USA). The signals were semi automatically scored in 20 sec epochs by a sleep scoring system (SleepSign, Kissei Comtec Co., Ltd., Nagano, Japan). This preliminary scoring was visually inspected and corrected if necessary. Test compound (0.1, 0.3, 1 or 10 mg/kg, Table 4) dissolved in a mixed solution containing 5% DMSO, 5% Cremophor EL, 20% PEG400 and 70% soluplus (1% (w/v)), or vehicle (i.e., a mixed solution containing 5% DMSO, 5% Cremophor EL, 20% PEG400 and 70% soluplus (1% (w/v))) was administered subcutaneously (s.c.) to the cynomolgus monkeys at ZT12 in a volume of 0.5 mL/kg in a pre-post design. The EEG, EMG and EOG recordings were performed for 4 h after the compound administration. The time spent in wakefulness for 4 h after administration (% of vehicle treatment) was calculated by using SleepSign.

SD rats = assay: Evaluation of wake-promoting effects in SD rats (EEG/EMG); assay type: in vivo, rat; settings: s.c., 1 mg/kg, at ZT5, 3 hr after administration
Method: The wake-promoting effects were evaluated by measuring the electroencephalogram (EEG) and electromyogram (EMG) in SD rats (Crl:CD(SD), CHARLES RIVER LABORATORIES JAPAN, Kanagawa, Japan.) using chronic experiment telemetry automatic measurement system (PhysioTel® and PONEMAH™, Data Sciences International Inc., Minnesota, U.S.A.). Under pentobarbital sodium anesthesia (50 mg/kg, intraperitoneal, Somnopentyl®, Kyoritsu Seiyaku, Tokyo, Japan), […] male SD rats were surgically implanted with a transmitter. Bilateral EEG leads were positioned at the parietal area in contact with the dura and fixed to the cranium with dental cement. Bilateral EMG leads were fixed to the back cervical muscles. The transmitter was implanted under the skin of the back, and the head skin was sutured. After recovery for at least 1 week, the cortical EEG and EMG signals in SD rats were recorded using a high-end data acquisition and real-time analysis system (PONEMAH™). The signals were automatically scored in 4 sec epochs by a sleep scoring system (SleepSign®, Kissei Comtec Co., Ltd.). Test compound (1 or 10 mg/kg, Table 3) dissolved in a mixed solution containing 10% DMSO, 10% Cremophor EL, 20% PEG400 and 60% H2O, or vehicle (i.e., a mixed solution containing 10% DMSO, 10% Cremophor EL, 20% PEG400 and 60% H2O) was administered subcutaneously (s.c.) to the SD rats at zeitgeber time (ZT) 5 (when the start time of the light cycle was ZT0) in a volume of 5 mL/kg. The EEG and EMG recordings were performed for 3 hr after the compound administration. The time spent in wakefulness for 3 hr after administration (% of vehicle treatment) was calculated by using SleepSign.

OX2R agonist activity (3 μM, %) [1]: 68%
Compound: CCC1CCC(OCC2C(NS(C)(=O)=O)CCc3ccc(C)c(=O)n32)CC1 [Example 9, rel-N-[(3S,4R)-4-({[(1s,4S)-4-ethylcyclohexyl]oxy}methyl)-7-methyl-6-oxo-1,3,4,6-tetrahydro-2H-quinolizin-3-yl]methanesulfonamide]
Wakefulness time (% of vehicle treatment) (Mean, n = 2) (cynomolgus monkeys; 0.3 mg/kg): 521.43 % of vehicle treatment

OX2R agonist activity (3 μM, %) [1]: 88%
Compound: CCCC1CCC(OCC2C(NS(=O)(=O)C3CC3)CCc3ccc(C)c(=O)n32)CC1 [Example 78, rel-N-[(3S,4R)-7-methyl-6-oxo-4-({[(1r,4S)-4-propylcyclohexyl]oxy}methyl)-1,3,4,6-tetrahydro-2H-quinolizin-3-yl]cyclopropanesulfonamide]
Wakefulness time (% of vehicle treatment) (Mean, n = 2) (SD rats): 130.53 % of vehicle treatment

OX2R agonist activity (3 μM, %) [1]: 84%
Compound: CC1CCC(OCC2C(NS(C)(=O)=O)CCc3ccc(C4CC4)c(=O)n32)CC1 [Example 105, rel-N-[(3S,4R)-7-cyclopropyl-4-({[(1s,4S)-4-methylcyclohexyl]oxy)methyl)-6-oxo-1,3,4,6-tetrahydro-2H-quinolizin-3-yl]methanesulfonamide]

OX2R agonist activity (3 μM, %) [1]: 65%
Compound: CCCOC1CCC(OCC2C(NS(C)(=O)=O)CCc3ccc(C)c(=O)n32)CC1 [Example 107, rel-N-[(3S,4R)-7-methyl-6-oxo-4-({[(1s,4S)-4-propoxycyclohexyl]oxy}methyl)-1,3,4,6-tetrahydro-2H-quinolizin-3-yl]methanesulfonamide]

OX2R agonist activity (3 μM, %) [1]: 98%
Compound: Cc1ccc2n(c1=O)C(COC1CCC(C3CC3)CC1)C(NS(C)(=O)=O)CC2 [Example 111, rel-N-[(3S,4R)-4-({[(1s,4S)-4-cyclopropylcyclohexyl]oxy}methyl)-7-methyl-6-oxo-1,3,4,6-tetrahydro-2H-quinolizin-3-yl]methanesulfonamide]
Wakefulness time (% of vehicle treatment) (Mean, n = 2) (SD rats): 126.37 % of vehicle treatment

OX2R agonist activity (3 μM, %) [1]: 94%
Compound: CCS(=O)(=O)NC1CCc2ccc(C)c(=O)n2C1COC1CCC(C2CC2)CC1 [Example 112, rel-N-[(3S,4R)-4-({[(1s,4S)-4-cyclopropylcyclohexyl]oxy}methyl)-7-methyl-6-oxo-1,3,4,6-tetrahydro-2H-quinolizin-3-yl]ethanesulfonamide]
Wakefulness time (% of vehicle treatment) (Mean, n = 2) (cynomolgus monkeys; 0.1 mg/kg): 671.65 % of vehicle treatment

OX2R agonist activity (3 μM, %) [1]: 69%
Compound: Cc1ccc2n(c1=O)C(COC1CCC(OCC3CC3)CC1)C(NS(C)(=O)=O)CC2 [Example 114, rel-N-[(3S,4R)-4-(([(1s,4S)-4-(cyclopropylmethoxy)cyclohexyl]oxy}methyl)-7-methyl-6-oxo-1,3,4,6-tetrahydro-2H-quinolizin-3-yl]methanesulfonamide]

OX2R agonist activity (3 μM, %) [1]: 100%
Compound: CCC1CCC(OCC2C(NS(C)(=O)=O)CCc3c(C4CC4)cc(C)c(=O)n32)CC1 [Example 115, rel-N-[(3S,4R)-9-cyclopropyl-4-({[(1s,4S)-4-ethylcyclohexyl]oxy)methyl)-7-methyl-6-oxo-1,3,4,6-tetrahydro-2H-quinolizin-3-yl]methanesulfonamide]

OX2R agonist activity (3 μM, %) [1]: 96%
Compound: CCOC1CCC(OCC2C(NS(C)(=O)=O)CCc3ccc(C)c(=O)n32)CC1 [Example 145, rel-N-[(3S,4R)-4-({[(1s,4S)-4-ethoxycyclohexyl]oxy}methyl)-7-methyl-6-oxo-1,3,4,6-tetrahydro-2H-quinolizin-3-yl]methanesulfonamide]
Wakefulness time (% of vehicle treatment) (Mean, n = 2) (cynomolgus monkeys; 10 mg/kg): 277.67 % of vehicle treatment

The next lines start with the compound.

Compound: Cc1ccc2n(c1=O)C(COC1CCC(c3ccccc3)CC1)C(NS(C)(=O)=O)CC2 [Example 6, rel-N-[(3S,4R)-7-methyl-6-oxo-4-({[(1s,4S)-4-phenylcyclohexyl]oxy}methyl)-1,3,4,6-tetrahydro-2H-quinolizin-3-yl]methanesulfonamide]
OX2R agonist activity (3 μM, %) [1]: 92% | Wakefulness time (% of vehicle treatment) (Mean, n = 2) (cynomolgus monkeys; 0.3 mg/kg): 352.87 % of vehicle treatment

Compound: CCC1CCC(OCC2C(NS(C)(=O)=O)CCc3c(Br)cc(C)c(=O)n32)CC1 [Example 106, rel-N-[(3S,4R)-9-bromo-4-({[(1s,4S)-4-ethylcyclohexyl]oxy}methyl)-7-methyl-6-oxo-1,3,4,6-tetrahydro-2H-quinolizin-3-yl]methanesulfonamide]
OX2R agonist activity (3 μM, %) [1]: 91%

Compound: Cc1ccc2n(c1=O)C(COC1CCC(C3CC3)CC1)C(NS(=O)(=O)C1CC1)CC2 [Example 113, rel-N-[(3S,4R)-4-({[(1s,4S)-4-cyclopropylcyclohexyl]oxy}methyl)-7-methyl-6-oxo-1,3,4,6-tetrahydro-2H-quinolizin-3-yl]cyclopropanesulfonamide]
OX2R agonist activity (3 μM, %) [1]: 87% | Wakefulness time (% of vehicle treatment) (Mean, n = 2) (cynomolgus monkeys; 0.1 mg/kg): 380.66 % of vehicle treatment

Compound: CC#CC1CCC(OCC2C(NS(=O)(=O)N(C)C)CCc3ccc(C)c(=O)n32)CC1 [Example 144, rel-N,N-dimethyl-N′-[(3S,4R)-7-methyl-6-oxo-4-({[(1s,4S)-4-(prop-1-yn-1-yl)cyclohexyl]oxy}methyl)-1,3,4,6-tetrahydro-2H-quinolizin-3-yl]sulfuric diamide]
OX2R agonist activity (3 μM, %) [1]: 99%

Compound: CC#CC1CCC(OCC2C(NS(=O)(=O)CC)CCc3ccc(C)c(=O)n32)CC1 [Example 147, rel-N-[(3S,4R)-7-methyl-6-oxo-4-({[(1s,4S)-4-(prop-1-yn-1-yl)cyclohexyl]oxy}methyl)-1,3,4,6-tetrahydro-2H-quinolizin-3-yl]ethanesulfonamide]
OX2R agonist activity (3 μM, %) [1]: 99% | Wakefulness time (% of vehicle treatment) (Mean, n = 2) (cynomolgus monkeys; 1 mg/kg): 389.64 % of vehicle treatment

Compound: CC#CC1CCC(OCC2C(NS(=O)(=O)C3CC3)CCc3ccc(C)c(=O)n32)CC1 [Example 148, rel-N-[(3S,4R)-7-methyl-6-oxo-4-({[(1s,4S)-4-(prop-1-yn-1-yl)cyclohexyl]oxy}methyl)-1,3,4,6-tetrahydro-2H-quinolizin-3-yl]cyclopropanesulfonamide]
OX2R agonist activity (3 μM, %) [1]: 97% | Wakefulness time (% of vehicle treatment) (Mean, n = 2) (cynomolgus monkeys; 1 mg/kg): 324.87 % of vehicle treatment

Compound: CC#CC1CCC(OCC2C(NS(=O)(=O)NC)CCc3ccc(C)c(=O)n32)CC1 [Example 149, rel-N-methyl-N′-[(3S,4R)-7-methyl-6-oxo-4-({[(1s,4S)-4-(prop-1-yn-1-yl)cyclohexyl]oxy}methyl)-1,3,4,6-tetrahydro-2H-quinolizin-3-yl]sulfuric diamide]
OX2R agonist activity (3 μM, %) [1]: 95%
